Measurements as given in patent US10238710B2, “Peptide having anti-inflammatory, osteogenic and hair growth promoting activities, and use of same” (CAREGEN CO., LTD., priority 2014, dated 2019).

Legend:
[1] = system: human umbilical vein endothelial cells (HUVEC); experiment: Cell proliferation assay (SRB), HUVEC; type: cell-based; details: 1, 10 and 50 μg/ml, 72 hours
Description: In order to observe the cell proliferation effect on human hair follicle dermal papilla cells, human hair follicle germinal matrix cells, and human umbilical vein endothelial cells, which are main hair cells, each type of cells were seeded on a 96-well plate at a density of 3×10^3 cells/well, followed by incubation under conditions of 37° C. and 5% CO2 for 24 hours. After the medium was exchanged with the same culture medium completely excluding serum, the cells were treated with the peptides at different concentrations (1 μg/ml, 10 μg/ml, and 50 μg/ml), followed by incubation under the same conditions for 72 hours. After the incubation supernatant was removed, the cells were immobilized using ethanol, and washed three times with phosphate buffer saline (PBS). The wash solution was removed, and the cells were stained through the treatment with colorimetric SRB solution. After the cells were sufficiently washed with 1% acetic acid, the cells were observed using a microscope to observe the state of living cells. The absorbance was read at UV light of 560 nm, thereby measuring the survival conditions of cells

bone sialoprotein (BSP) = experiment: RT-PCR of osteogenic differentiation marker BSP; type: cell-based, mouse; details: MC3T3-E1, three days
HGFR = biological target: T1, HGFR (Homo sapiens, UniProt P08581); experiment: Receptor binding assay (HGFR), ELISA; details: peptide coated 50 μg/25 μl, O.D. 450 nm
T1 construct: purchased R&D Systems
Description: On an ELISA plate, 50 μg/25 μl peptide and 25 μl of a coating buffer (20 mM sodium phosphate pH 9.6) were added and mixed, and then incubated at 4° C. overnight. After washing three times with PBST (300 μl), the blocking with 200 μl of a blocking buffer (3% BSA) was carried out at room temperature for 2 hours. After washing three times with PBST (300 μl), HGFR (R&D Systems) was added at 0.5 μg/1 ml per well, followed by incubation at room temperature for 2 hours. After washing three times with PBST (300 μl), anti-human IgG-HRP was diluted at 1:1,000, which was then added at 100 μl per well, followed by incubation at room temperature for 2 hours. After washing three times with PBST (300 μl), 100 μl of TMB solution was added, followed by color development. 50 μl of a stop solution (3 N H2SO4) was added to stop the reaction, and then the absorbance was read at O.D. 450 nm.

Wnt3a = experiment: Western blotting of hair growth protein Wnt3a; type: cell-based, human; details: HFDPC, 0.1-50 μg/ml, 24 hours
Description: (§1) In order to observe the changes in the expression of IGF1, KGF, and Wnt3a, which are proteins involved in the development of hair roots in the human hair follicle dermal papilla cells, the cells were treated with the peptides of the present invention for 24 hours, and then subjected to western blotting using specific antibodies, thereby observing the changes in hair growth-related proteins.
(§2) The cells were stabilized by the incubation overnight, and then treated with the peptides at different concentrations (0.1-50 μg/ml) for 24 hours. The cells were treated with the cell lysis buffer to obtain a lysate, followed by protein quantification, and then western blotting was performed with respect to IGF-1, KGF, and Wnt3a.
(§3) The test was carried out using anti-IGF-1 antibody (Santa Cruz Biotechnology, USA), anti-KGF antibody (Santa Cruz Biotechnology, USA), and anti-Wnt3a antibody (Santa Cruz Biotechnology, USA).

PI3K = experiment: Western blotting of cell signaling material, PI3K; type: cell-based, human; details: HFDPC, 1 and 10 μg/ml, 30 minutes and 60 minutes
Description: In order to observe the changes in the phosphorylation of ERK and the expression of PI3K, which are main signaling materials involved in cell proliferation in the human hair follicle dermal papilla cells, the cells were treated with the peptides of the present invention for 30 minutes and 60 minutes, and then subjected to western blotting using specific antibodies, thereby observing the pERK and PI3K changes. The test was carried out using anti-pERK antibody (Santa Cruz Biotechnology, USA) and anti-pPI3K antibody (Santa Cruz Biotechnology, USA).
The cells were treated with the cell lysis buffer to obtain a lysate, followed by protein quantification, and then western blotting was performed with respect to Phospho-ERK (pERK), PI3K, and β-catenin.

IL-1β = IL-1β ELISA in THP-1 cells treated with TNF-α; type: cell-based, human; details: 10 μg/ml pre-treatment 30 minutes, 50 ng/ml TNF-α, 24 hours
Description: The human monocytes, THP-1 cells were seeded on a 24-well plate at a density of 2×10^6 cells/well. After incubation overnight, the cells were pre-treated with the samples at 10 μg/ml for 30 minutes, and treated with 50 ng/ml TNF-α, followed by incubation for 24 hours. The cell incubation medium was obtained, followed by centrifugation at 13,000 rpm for 10 minutes at 4° C., and then the supernatant was separated. ELISA was carried out using IL-1b and IL-8 ELISA kit (R&D system).

KGF = experiment: Western blotting of hair growth protein KGF; type: cell-based, human; details: HFDPC, 0.1-50 μg/ml, 24 hours
Description: as §1, §2, §3

IGF-1 = experiment: Western blotting of hair growth protein IGF-1; type: cell-based, human; details: HFDPC, 0.1-50 μg/ml, 24 hours
Description: as §1, §2, §3

NF-κB = experiment: Western blotting in HaCaT cells, nuclear translocation of NF-κB activated by TNF-α; type: cell-based, human; details: peptide at different concentrations
DKK-1 = experiment: Western blotting of DKK-1 with hair loss causing hormone DHT; type: cell-based, human; details: HFDPC, 5 μg/ml DHT together with peptide 1 and 10 μg/ml, 48 hours
Description: The cells were treated with DHT and the peptides for 48 hours, and then subjected to western blotting with respect to DKK-1 using specific antibodies, thereby observing the expression of DKK-1.
The human hair follicle dermal papilla cells were seeded on a 6-well plate at a density of 1×10^5 cells/well. The cells were stabilized by incubation overnight, and then treated with 5 μg/ml DHT (Sigma Aldrich) together with the peptides at different concentrations (1 μg/ml and 10 μg/ml) for 48 hours. The cells were treated with the cell lysis buffer to obtain a lysate, followed by protein quantification, and then western blotting was performed with respect to DKK-1 using anti-DKK-1 antibody (Santa Cruz Biotechnology, USA).

[2] = system: alkaline phosphatase (ALP); details: MC3T3-E1, three days, RT-PCR
Description: MC3T3-E1 (mouse osteoblast line) cells were seeded on a 6-well plate at a cell density of 1×10^5 cells/well. The cells incubated overnight were treated with the peptides at different concentrations (10 and 50 μg/ml), followed by incubation in an incubator at 37° C. for three days (positive control: 100 ng/ml BMP2 (Cell signaling)). After the incubation-completed cells were collected, the cells were treated with RNA extraction solution (Easy Blue, Intron) to prepare RNA, and then cDNA was synthesized using RT pre-mix (Intron). PCR was carried out using primers of respective markers (OPG, ALP, BSP) and PCR pre-mix (Intron).
Target-specific primer sequences used in PCR for osteogenic differentiation markers were as follows: OPG forward primer sequence, 5′-[sequence]-3′ and OPG reverse primer, 5′-[sequence]-3′ (annealing temperature, 60° C.); ALP forward primer sequence, 5′-[sequence]-3′ and ALP reverse primer, 5′-[sequence]-3′ (annealing temperature, 60° C.); BSP forward primer sequence, 5′-[sequence]-3′ and BSP reverse primer, 5′-[sequence]-3′ (annealing temperature, 60° C.)
5 μl of PCR product was loaded on 1% agarose gel, followed by electrophoresis, and then the bands were investigated using Gel-Doc.

T1 sequence (P08581 25-1390): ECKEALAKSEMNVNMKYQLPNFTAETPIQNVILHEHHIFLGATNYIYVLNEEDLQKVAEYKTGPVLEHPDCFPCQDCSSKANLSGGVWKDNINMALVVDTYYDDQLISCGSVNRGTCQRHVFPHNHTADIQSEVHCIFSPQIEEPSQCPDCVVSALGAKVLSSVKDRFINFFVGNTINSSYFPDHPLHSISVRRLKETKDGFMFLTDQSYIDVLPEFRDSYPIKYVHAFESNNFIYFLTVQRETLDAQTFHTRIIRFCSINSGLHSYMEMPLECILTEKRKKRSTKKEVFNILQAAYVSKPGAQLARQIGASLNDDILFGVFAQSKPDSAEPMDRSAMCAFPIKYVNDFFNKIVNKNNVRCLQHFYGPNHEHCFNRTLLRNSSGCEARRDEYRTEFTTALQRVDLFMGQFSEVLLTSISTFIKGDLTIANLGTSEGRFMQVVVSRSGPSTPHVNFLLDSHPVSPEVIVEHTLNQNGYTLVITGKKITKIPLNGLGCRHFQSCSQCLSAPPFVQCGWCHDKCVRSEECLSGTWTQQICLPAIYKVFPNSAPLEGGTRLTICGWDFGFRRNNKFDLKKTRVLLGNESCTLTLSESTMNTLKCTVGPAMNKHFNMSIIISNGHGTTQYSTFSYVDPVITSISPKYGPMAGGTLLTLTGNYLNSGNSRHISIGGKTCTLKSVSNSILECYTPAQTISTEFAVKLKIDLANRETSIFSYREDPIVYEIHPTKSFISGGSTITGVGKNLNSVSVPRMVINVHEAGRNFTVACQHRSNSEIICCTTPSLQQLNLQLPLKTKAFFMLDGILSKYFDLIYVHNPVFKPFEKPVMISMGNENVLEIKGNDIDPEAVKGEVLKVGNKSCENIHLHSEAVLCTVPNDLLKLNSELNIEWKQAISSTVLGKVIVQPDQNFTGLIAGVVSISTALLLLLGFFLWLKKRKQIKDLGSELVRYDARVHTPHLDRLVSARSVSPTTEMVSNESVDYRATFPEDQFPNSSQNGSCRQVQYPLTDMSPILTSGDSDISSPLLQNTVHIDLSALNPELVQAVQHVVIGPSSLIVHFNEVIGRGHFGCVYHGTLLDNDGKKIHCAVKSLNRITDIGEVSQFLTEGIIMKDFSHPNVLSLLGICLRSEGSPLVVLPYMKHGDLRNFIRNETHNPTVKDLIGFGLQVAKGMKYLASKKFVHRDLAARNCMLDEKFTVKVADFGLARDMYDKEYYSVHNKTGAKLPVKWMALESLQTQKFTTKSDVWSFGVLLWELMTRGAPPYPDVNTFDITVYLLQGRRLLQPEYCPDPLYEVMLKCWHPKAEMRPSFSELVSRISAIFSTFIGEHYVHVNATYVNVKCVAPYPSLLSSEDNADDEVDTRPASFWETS

Substance: NH2-Ala-Cys-Arg-Ser-Ala-Ile-Gly-Arg-Pro-Cys-COOH (H-ACRSAIGRPC-OH; cysteine pairing not given here) [SEQ ID NO: 1]
- cell proliferation, HUVEC [1]: increased in a concentration-dependent manner
- expression of bone sialoprotein (BSP) (bone sialoprotein (BSP)): increased
- binding affinity on HGFR (HGFR): high binding affinity
- expression of Wnt3a (Wnt3a): increased
- level of PI3K (PI3K): increased
- expression of IL-1β increased by TNF-α treatment (IL-1β): inhibited
- expression of KGF (KGF): increased
- expression of IGF-1 (IGF-1): increased
- nuclear translocation of NF-κB activated by TNF-α treatment (NF-κB): reduced
- expression of DKK-1 increased by DHT (DKK-1): reduced
- expression of alkaline phosphatase (ALP) [2]: increased
